Laboratory results from the supplement of paper PMC5908809.

What was measured:
[1] = test system: normal NK cells expanded with K562-aAPC; experiment: drug sensitivity score (DSS) (DSS units); higher = more sensitive; extreme values may be limits of the assay; settings: 72 h; IL-2 2.5 ng/mL
Protocol: (§1)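 Drug sensitivity and resistance testing on K562-aAPC-expanded normal NK cells: 5 concentrations (10-fold steps over a 10,000-fold range), 72 h at 37 °C, viability by CellTiter-Glo normalised to DMSO and benzethonium chloride controls; DSS from the fitted curve.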

[2] = test system: NK-YS (IL-2 2.5 ng/mL); experiment: as above; settings: 72 h
[3] = test system: KHYG-1 (IL-2 2.5 ng/mL); experiment: as above; settings: 72 h
[4] = test system: normal primary NK cells, pool 1 (3 donors), resting (IL-2 0 ng/mL); experiment: as above; settings: 72 h
[5] = test system: normal primary NK cells, pool 1 (3 donors) (IL-2 2.5 ng/mL); experiment: as above; settings: 72 h
[6] = test system: YT (IL-2 2.5 ng/mL); experiment: as above; settings: 72 h
[7] = test system: DERL-7 (IL-2 2.5 ng/mL); experiment: as above; settings: 72 h
[8] = test system: KAI3 (IL-2 2.5 ng/mL); experiment: as above; settings: 72 h
[9] = test system: NKL (IL-2 2.5 ng/mL); experiment: as above; settings: 72 h
[10] = test system: SNK-6 (IL-2 2.5 ng/mL); experiment: as above; settings: 72 h
[11] = test system: IMC-1 (IL-2 20 ng/mL); experiment: as above; settings: 72 h
[12] = test system: normal primary NK cells, pool 3 (3 donors) (IL-2 2.5 ng/mL); experiment: as above; settings: 72 h
[13] = test system: NK-92 (IL-2 2.5 ng/mL); experiment: as above; settings: 72 h
[14] = test system: normal primary NK cells, pool 2 (3 donors) (IL-2 2.5 ng/mL); experiment: as above; settings: 72 h
[15] = test system: NK-YS (IL-2 2.5 ng/mL); experiment: percent inhibition of viability; higher = more inhibition; settings: 72 h
[16] = test system: KHYG-1 (IL-2 2.5 ng/mL); experiment: as above; settings: 72 h
[17] = test system: normal primary NK cells, pool 1 (3 donors), resting (IL-2 0 ng/mL); experiment: as above; settings: 72 h
[18] = test system: normal primary NK cells, pool 1 (3 donors) (IL-2 2.5 ng/mL); experiment: as above; settings: 72 h
[19] = test system: YT (IL-2 2.5 ng/mL); experiment: as above; settings: 72 h
[20] = test system: DERL-7 (IL-2 2.5 ng/mL); experiment: as above; settings: 72 h
[21] = test system: KAI3 (IL-2 2.5 ng/mL); experiment: as above; settings: 72 h
[22] = test system: NKL (IL-2 2.5 ng/mL); experiment: as above; settings: 72 h
[23] = test system: SNK-6 (IL-2 2.5 ng/mL); experiment: as above; settings: 72 h
[24] = test system: IMC-1 (IL-2 20 ng/mL); experiment: as above; settings: 72 h
[25] = test system: normal primary NK cells, pool 3 (3 donors) (IL-2 2.5 ng/mL); experiment: as above; settings: 72 h
[26] = test system: NK-92 (IL-2 2.5 ng/mL); experiment: as above; settings: 72 h
[27] = test system: normal primary NK cells, pool 2 (3 donors) (IL-2 2.5 ng/mL); experiment: as above; settings: 72 h
[28] = test system: normal NK cells expanded with K562-aAPC; experiment: as above; settings: 72 h, IL-2 2.5 ng/mL
Protocol: as §1

O=C(Nc1c[nH]nc1-c1nc2ccc(CN3CCOCC3)cc2[nH]1)NC1CC1 [AT9283] (max concentration tested 1000 nM)
Settings	drug sensitivity score
[1]	11.1
[2]	10.4
[3]	15.2
[4]	0
[5]	0.59
[6]	4.99
[7]	16
[8]	9.99
[9]	8.19
[10]	15.5
[11]	13.1
[12]	0
[13]	9.6
[14]	0

percent inhibition of viability [%]
Settings	0.1 nM	1 nM	10 nM	100 nM	1000 nM
[15]	-4.25	-5.41	-2.2	57.1	62.4
[16]	0.97	-2.56	0.97	83.4	96
[17]	-10.1	-11	-42.4	-105	-157
[18]	-12.6	-14	-13.3	12.2	12.7
[19]	0.76	-0.55	3.44	18.3	51.5
[20]	0.91	0.04	7.11	81.9	98.3
[21]	-1.1	-5.66	8.51	45.9	76.8
[22]	-4.9	-5.16	-3.64	38.5	64.4
[23]	13.2	8.33	13.9	73.1	96.5
[24]	-3.86	-1.55	-6.66	65.3	100
[25]	-15.9	-12.2	-13.3	-0.35	9.39
[26]	3.17	8.69	0.17	50.1	67.7
[27]	-12.3	-10.8	-12.5	0.3	9.78
[28]	0.7	-5.39	3.23	57.8	65.9

COc1cc(N2CCN(C)CC2)ccc1Nc1nccc(-c2cn(C)c3cnccc23)n1 [AZ191] (max concentration tested 10000 nM)
Settings	drug sensitivity score
[1]	6.54
[2]	6.95
[3]	7.01
[4]	3.59
[5]	5.01
[6]	2.31
[7]	9.03
[8]	6.56
[9]	7.17
[10]	4.58
[11]	6.03
[12]	4.48
[13]	4.21
[14]	4.59

percent inhibition of viability [%]
Settings	1 nM	10 nM	100 nM	1000 nM	10000 nM
[15]	-4.12	2.61	2.04	8.64	101
[16]	0.79	2.96	3.04	14.1	84
[17]	1.62	-14.6	-3.74	-36.1	89
[18]	7.5	-5.03	-5.7	-4.75	96.8
[19]	2.03	4.34	2.77	1.55	41.9
[20]	7.49	2.85	4.6	22.2	100
[21]	-2.82	-0.25	1.51	7.76	96.3
[22]	0.2	-6.29	1.16	9.93	100
[23]	-18.5	-11.7	-15.3	-7.38	92
[24]	-5.47	3.31	-0.27	2.63	101
[25]	-10.6	-7.12	4.76	-17.3	97.8
[26]	2.97	2.04	-3.34	-19.2	93.8
[27]	-12.1	-5.94	-2.76	-11.2	95.5
[28]	-2.34	0.52	-4.12	6.6	100

N[C@@H]1CCCN(c2c(/C=C3\SC(=O)NC3=O)cccc2-c2ccccc2)C1 [AZD1208] (max concentration tested 10000 nM)
Settings	drug sensitivity score
[1]	5.29
[2]	2.84
[3]	1.82
[4]	6.52
[5]	3.28
[6]	0
[7]	9.28
[8]	5.48
[9]	7.1
[10]	0.26
[11]	0
[12]	0.17
[13]	0
[14]	1.86

percent inhibition of viability [%]
Settings	1 nM	10 nM	100 nM	1000 nM	10000 nM
[15]	-4.63	0.2	2.23	14.4	31.6
[16]	-4.34	-1.4	1.04	10.7	23.3
[17]	-10.1	0.65	23.9	23.6	23
[18]	-8.45	-3.78	9.24	17.3	18.6
[19]	-7.46	-4.31	-0.8	3.09	7.52
[20]	1.77	2.67	16.4	40.2	56.5
[21]	-0.84	0.89	7.33	28.1	34.3
[22]	-10.7	-16.5	4.37	35.7	49.5
[23]	-0.39	4.45	-2.55	5.71	12
[24]	-4.38	-1.65	-10.7	-5.11	-8.15
[25]	-9.02	-6.59	-2.09	5.05	11.5
[26]	-9.08	-8.5	-4.31	0.29	9
[27]	-5.92	-0.84	8.9	12.8	19.5
[28]	-4.31	-0.72	10.2	26	28.9

COc1ccc(-c2ccc3c(N4CCOC[C@@H]4C)nc(N4CCOC[C@@H]4C)nc3n2)cc1CO [AZD8055] (max concentration tested 10000 nM)
Settings	drug sensitivity score
[1]	12.8
[2]	18.9
[3]	18.6
[4]	0
[5]	8.04
[6]	17.3
[7]	27.5
[8]	20.6
[9]	25.5
[10]	19.1
[11]	0.56
[12]	2.13
[13]	20.7
[14]	4.67

percent inhibition of viability [%]
Settings	1 nM	10 nM	100 nM	1000 nM	10000 nM
[15]	4.19	9.89	45.4	66.8	78.2
[16]	3.41	7.07	30.4	82.5	82.6
[17]	-13.5	-7.65	-3.85	9.37	-4.87
[18]	-5.65	6.16	8.42	38.2	29.2
[19]	7.4	12.9	43.8	56.6	68.3
[20]	0.54	34.1	65.8	86.8	88.3
[21]	16.4	25.7	50.1	58.8	60.9
[22]	9.88	42.8	61.2	63.9	61.8
[23]	-1.89	12.4	53.8	54.5	54.5
[24]	1.04	-9.13	-36.4	1.86	16.9
[25]	-5.43	8.78	9.67	14.1	16.9
[26]	8.5	22.1	48.4	64.4	97.2
[27]	-5.63	5.36	15.5	20	22.5
[28]	6.73	19.9	29.3	42.1	41.3

Cc1ncc(-c2ccnc(Nc3ccc(S(C)(=O)=O)cc3)n2)n1C(C)C [AZD-5438] (max concentration tested 10000 nM)
Settings	drug sensitivity score
[1]	6.5
[2]	12.6
[3]	11.3
[4]	3.02
[5]	7.3
[6]	9.28
[7]	10
[8]	11
[9]	6.34
[10]	3.04
[11]	10.5
[12]	8.5
[13]	5.86
[14]	7.94

percent inhibition of viability [%]
Settings	1 nM	10 nM	100 nM	1000 nM	10000 nM
[15]	-2.69	-3.59	1.96	59.8	103
[16]	0.77	0.77	0.38	45.4	105
[17]	4.17	-8.18	-42.6	-99.9	91.4
[18]	-7.21	-12.4	-17.5	11.4	98
[19]	-1.56	-0.25	0.72	24	105
[20]	-5.59	2.74	-9.82	31.4	100
[21]	-3.46	-9.8	-5.74	41.5	102
[22]	-7.07	-5.93	-18.1	3.89	103
[23]	-9.66	-5.34	6.52	-1.33	58.4
[24]	-2.44	-0.85	6.12	39.1	101
[25]	-7.04	-10.4	1.54	18.4	99.4
[26]	-5.15	-8.65	-22.7	-0.77	104
[27]	-12.1	-8.8	-8.52	15.6	96.9
[28]	0.15	-0.53	-5.24	6.05	101
